Several values for one entry are separate records, joined by “and”; a condition that tells them apart may be missing. Identical values can stand only once.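 All cell lines were grown in 96-well plates and treated with compound for 48 hours. The concentration for 50% growth inhibition is given as GI50. TGI: total growth inhibition.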
Assays:
Experiment in all cases: NCI tumour cell line growth inhibition, 48 h
SN12C renal = tested on: SN12C renal
LXFL 529 NSCLC = tested on: LXFL 529 NSCLC
DMS 273 small cell lung = tested on: DMS 273 small cell lung
RXF-631 renal = tested on: RXF-631 renal
HOP-18 NSCLC = tested on: HOP-18 NSCLC
XF 498 CNS = tested on: XF 498 CNS
SR leukemia = tested on: SR leukemia
M19-MEL melanoma = tested on: M19-MEL melanoma
SN12K1 renal = tested on: SN12K1 renal
PC-3 prostate = tested on: PC-3 prostate
T-47D breast = tested on: T-47D breast
MDA-N = tested on: MDA-N
DU-145 prostate = tested on: DU-145 prostate
786-0 renal = tested on: 786-0 renal
HS 578T breast = tested on: HS 578T breast
BT-549 breast = tested on: BT-549 breast

SMILES | TGI (SN12C renal) | TGI (DMS 273 small cell lung) | TGI (HOP-18 NSCLC) | TGI (XF 498 CNS) | TGI (SR leukemia) | TGI (M19-MEL melanoma) | TGI (SN12K1 renal) | TGI (PC-3 prostate) | TGI (T-47D breast) | TGI (DU-145 prostate) | also measured
Cc1cccc(C(C)C)c1NC(=O)CC1Sc2ccccc2NC1=O (stereo unspecified) | > 100 µM | > 100 µM | > 100 µM | > 100 µM | > 100 µM |  |  |  |  |  | TGI (LXFL 529 NSCLC): > 100 µM; TGI (RXF-631 renal): > 100 µM
O=C(CC(=O)c1ccccc1)CC(O)(c1ccccc1)c1ccccc1 | 19.3 µM |  |  |  | > 100 µM | 13.9 µM |  |  |  |  | TGI (LXFL 529 NSCLC): 17 µM
COc1cc(/C=C/C(=O)O)ccc1C(=O)OCc1ccccc1 | > 100 µM | > 100 µM | > 100 µM | > 100 µM |  | > 100 µM | > 100000 nM |  |  |  | 
CCOC(=O)c1csc(NC(=O)CN2CCN(C)CC2)n1 |  |  |  |  | > 100 µM |  |  | > 100 µM | > 100 µM | > 100 µM | TGI (MDA-N): > 100 µM
CCCC(O)C(NC(=O)CCl)C(=O)O (stereo unspecified) | > 100 µM | > 100 µM | > 100 µM | > 100 µM |  | > 100 µM | > 100000 nM |  |  |  | 
CC(=O)Nc1ccc(-c2nc3ccccc3s2)cc1 |  |  |  |  | > 100 µM |  |  | > 100 µM | > 100 µM | 40.1 µM | TGI (786-0 renal): 64.8 µM; TGI (HS 578T breast): > 100 µM
CC12CCC3C(CCC4=CC(O)CCC43C=O)C1(O)CCC2c1ccc(=O)oc1 (stereo unspecified) |  | 0.0228 µM | 0.0461 µM |  |  | 0.072 µM and 0.061 µM | 28.6 nM and 53.1 nM |  |  |  | GI50 (SN12C renal): 50 nM; GI50 (M19-MEL melanoma): 50 nM; GI50 (SN12K1 renal): 7.53 nM
COc1cc2c3c(c4cc(OC)c(OC)cc4c2cc1OC)C(=O)C1CCC(=O)N1C3 (stereo unspecified) |  |  |  |  |  |  |  | > 100 µM | > 100 µM | > 100 µM | TGI (BT-549 breast): > 100 µM; TGI (HS 578T breast): > 100 µM
